{"source": "ChEMBL document CHEMBL1131358", "about": "“An approach to use an unusual adenosine transporter to selectively deliver polyamine analogues to trypanosomes” (Bioorg Med Chem Lett, 1998)", "key": {"[1]": {"test_system": "Trypanosoma brucei", "assay": "Inhibitory activity against adenosine uptake through P2 adenosine transporter of blood stream Trypanosoma brucei trypomastigotes at the concentration 100 ug/mL"}, "[2]": {"test_system": "Trypanosoma brucei", "assay": "Inhibitory activity against adenosine uptake through P2 adenosine transporter of blood stream Trypanosoma brucei trypomastigotes at the concentration 10 ug/mL"}, "[3]": {"test_system": "Trypanosoma brucei", "assay": "Inhibitory activity against adenosine uptake through P2 adenosine transporter of blood stream Trypanosoma brucei trypomastigotes at the concentration 1 ug/mL"}, "[4]": {"test_system": "Trypanosoma brucei brucei", "assay": "In vitro activity against Trypanosoma brucei trypomastigotes form", "assay_type": "functional, organism-based"}, "[5]": {"test_system": "Trypanosoma brucei brucei", "assay": "In vitro activity against bloodstream from trypomastigotes.", "assay_type": "functional, organism-based"}}, "data": [{"smiles": "NCCCNCCCCN(CCCN)c1nc(N)nc(N)n1", "values": [{"measurement": "inhibition", "setting": "[1]", "value": 60, "unit": "%"}, {"measurement": "inhibition", "setting": "[2]", "value": 44, "unit": "%"}, {"measurement": "inhibition", "setting": "[3]", "value": 24, "unit": "%"}, {"measurement": "IC50", "setting": "[4]", "value": 12, "unit": "µM"}]}, {"smiles": "NCCCNCCCCN(CCCN)CCCNc1nc(N)nc(N)n1", "values": [{"measurement": "inhibition", "setting": "[1]", "value": 37, "unit": "%"}, {"measurement": "inhibition", "setting": "[2]", "value": 17, "unit": "%"}, {"measurement": "inhibition", "setting": "[3]", "value": 2, "unit": "%"}, {"measurement": "IC50", "setting": "[4]", "value": 24, "unit": "µM"}]}, {"smiles": "Nc1[nH]cnc2ncnc1-2", "values": [{"measurement": "inhibition", "setting": "[1]", "value": 99, "unit": "%"}, {"measurement": "inhibition", "setting": "[2]", "value": 89, "unit": "%"}, {"measurement": "inhibition", "setting": "[3]", "value": 88, "unit": "%"}]}, {"smiles": "Nc1nc(N)nc(NCCCNCCCCCCCNCCCNc2nc(N)nc(N)n2)n1", "values": [{"measurement": "inhibition", "setting": "[1]", "value": 93, "unit": "%"}, {"measurement": "inhibition", "setting": "[2]", "value": 63, "unit": "%"}, {"measurement": "inhibition", "setting": "[3]", "value": 36, "unit": "%"}, {"measurement": "IC50", "setting": "[5]", "value": 110, "unit": "µM"}]}, {"smiles": "NCCCNCCCCCCCNCCCNc1nc(N)nc(N)n1", "values": [{"measurement": "inhibition", "setting": "[1]", "value": 77, "unit": "%"}, {"measurement": "inhibition", "setting": "[2]", "value": 32, "unit": "%"}, {"measurement": "inhibition", "setting": "[3]", "value": 12, "unit": "%"}, {"measurement": "IC50", "setting": "[5]", "value": 21, "unit": "µM"}]}, {"smiles": "NCCCCN(CCCN)CCCNc1nc(N)nc(N)n1", "values": [{"measurement": "inhibition", "setting": "[1]", "value": 61, "unit": "%"}, {"measurement": "inhibition", "setting": "[2]", "value": 5, "unit": "%"}, {"measurement": "inhibition", "setting": "[3]", "value": 7, "unit": "%"}, {"measurement": "IC50", "setting": "[4]", "value": "> 200", "unit": "µM"}]}, {"smiles": "Nc1nc(N)nc(NCCCNCCCNCCCCCCCNCCCNCCCNc2nc(N)nc(N)n2)n1", "values": [{"measurement": "inhibition", "setting": "[1]", "value": 88, "unit": "%"}, {"measurement": "inhibition", "setting": "[2]", "value": 18, "unit": "%"}, {"measurement": "inhibition", "setting": "[3]", "value": 0, "unit": "%"}, {"measurement": "IC50", "setting": "[5]", "value": 24, "unit": "µM"}]}, {"smiles": "NCCCCN(CCCN)c1nc(N)nc(N)n1", "values": [{"measurement": "inhibition", "setting": "[1]", "value": 73, "unit": "%"}, {"measurement": "inhibition", "setting": "[2]", "value": 47, "unit": "%"}, {"measurement": "inhibition", "setting": "[3]", "value": 29, "unit": "%"}, {"measurement": "IC50", "setting": "[4]", "value": "> 270", "unit": "µM"}]}, {"smiles": "N=C(N)c1ccc(/N=N/Nc2ccc(C(=N)N)cc2)cc1", "note": "[DIMINAZENE]", "values": [{"measurement": "inhibition", "setting": "[1]", "value": 99, "unit": "%"}, {"measurement": "inhibition", "setting": "[2]", "value": 84, "unit": "%"}, {"measurement": "inhibition", "setting": "[3]", "value": 67, "unit": "%"}, {"measurement": "IC50", "setting": "[5]", "value": 0.003, "unit": "µM"}]}]}
